Test results from paper PMC7876106 (Scientific Reports, 2021).

Legend:
Format in all cases: cell-based, human
[1] = system: telomere repeat DNA in LOX cells; experiment: Telomere length analysis (PFGE, Southern blot) of LOX cells; details: for telomere repeat DNA signals: TLA
Experimental: Genomic DNA was isolated from cells using a genomic DNA purification kit (Promega) and digested with AluI and MboI. Digested genomic DNA was purified by phenol/choloroform extraction and quantified using a Qubit 4 Fluorometer (Thermal Scientific). Equal amounts of digested DNA (5 μg) were separated by pulse-field gel electrophoresis (PFGE) performed with a 1% agarose gel at 6V/cm, switch times from 1 to 12s, 15 °C for 12h using CHEF-DRIII system (Bio-Rad). The DNA was transferred to GeneScreen Plus blotting membranes (Perkin-Elmer) and analyzed by Southern blot. The blots were hybridized with a 32P-labeled telomere repeat or […]
Alu probe at 42 °C overnight, then washed twice for 5 min each with 0.2 M wash buffer (0.2 M Na2HPO4 pH 7.2, 1 mM EDTA, and 2% SDS) at room temperature and once for 10 min with 0.1 M wash buffer at 42°C. Relative telomere-repeat signals were determined by Typhoon 9410 Imager and ImageQuant TL software (GE Healthcare). Signal intensity represents the percentage decrease of average telomere signals relative to dox (-) or PP control. […]
(§1) 100, 1 mM EDTA in 1x PBS) before immuno-staining. Primary antibodies were prepared in blocking solution at following dilutions: anti-53BP1 (1:500, IHC-00001; Bethyl Laboratories) and γH2AX (1:2,000, A300-081A; Bethyl Laboratories). After IF, cells were fixed in 4% paraformaldehyde in 1x PBS for 10 min, washed in 1x PBS, dehydrated in ethanol series (70%, 95%, 100%), and air-dried. Coverslips were denatured for 5 min at 80-85° C in hybridization mix [70% formamide, 10 mM Tris-HCl, pH 7.2, and 0.5% blocking solution (Roche)] containing telomeric PNA-Cy3-(CCCTAA)3 probe, and hybridization was continued for 2 hrs at room temperature in the dark moisturized chambers. Coverslips were washed twice for 15 min each with 70% formamide, 10 mM Tris-HCl (pH 7.2), and 0.1% BSA, and followed by three washes for 5 min each with 0.15 M NaCl, 0.1 M Tris-HCl (pH 7.2), and 0.08% Tween-20. Nuclei were counterstained with 0.1 µg/ml DAPI in blocking solution and coverslips mounted with VectorShield (Vector Laboratories). RNA FISH was performed as previously described 1.
Images were captured with a 100x lens on a Nikon E600 Upright microscope (Nikon

LOX cells [2] = experiment: Metaphase telomere FISH in LOX cells; details: 2 μM, 3 days
Experimental: Mei et al, 2020 TERRA Requires TRF2 GAR Domain
(§2) Instruments, Inc., Melville, NY) with ImagePro Plus software (Media Cybernetics, Silver Spring, MD) for image processing. Cells with > 5 53BP1/γH2AX foci co-localizing with telomere DNA foci were scored as positive for TIF. The quantification was generated from at least three independent Immuno-FISH experiments.
FISH analysis on metaphase spreads was performed as previously described 5. Briefly, LOX cells were treated with indicated chemicals (2 µM) for 3 days in a 37 °C CO2 incubator. LOX TRF2∆B cells were cultured in the absence (-) or presence (+) of 1 µg/ml doxycycline for 20 days in 37 °C incubator. Colcemid (0.1 mg/ml; GIBCO) was then added to cells and incubated for 4 hrs to accumulate mitotic cells. Cells were collected by trypsinization and suspended in 75 mM KCl hypotonic solution at 37 °C for 25 min before fixation in fresh 3:1 methanol/acetic acid for 4-5 times. Fixed cells were dropped onto cold, wet glass microscope slides and allowed to dry slowly in a humid environment. Metaphase chromosome spreads were fixed in 4% paraformaldehyde in 1x PBS for 3 min, dehydrated in ethanol series [70%, 95%,100% (vol/vol)], and air-dried. Slides were denatured for 5 min at 81 °C in hybridization mix [70% (vol/vol) formamide, 10 mM Tris·HCl (pH 7.2), and 0.5% blocking solution (Roche)] containing telomeric PNA-Cy3-(CCCTAA)3 probe (PNA Bio). […]

LOX cells [3] = experiment: TIF assay (IF FISH, γH2AX or 53BP1 with telomere DNA) in LOX cells; details: 2 μM, 3 days
Experimental: Mei et al, 2020 TERRA Requires TRF2 GAR Domain […]
as §1, with “Indirect immunofluorescence (IF) combined with fluorescence in situ hybridization (FISH) analysis for telomere dysfunction was performed as described 4 with some modifications. Briefly, cells grown on coverslips were fixed for 15 min in 2% paraformaldehyde/1x PBS at RT, followed by permeabilization for 10 min in 1x PBS/0.5% Triton X-100 at RT. After washing with 1x PBS, cells were incubated for 60 min in blocking solution (0.5% BSA, 0.2% fish gelatin, 0.1% Triton X-100,” for “100,”
Images were captured with a 100x lens on a Nikon E600 Upright microscope (Nikon […]
as §2, with “experiments. […]” for “experiments.”
0.1 μg/mL DAPI in 1x PBS and slides were mounted with VectorShield (Vector Laboratories).
Images were taken with a 100x lens on a Nikon E600 Upright microscope (Nikon Instruments) using ImagePro Plus software (Media Cybernetics) for image processing. Statistical analysis was performed using two-tailed Student t Test.

Compound | average telomere length ([1]; 2 μM, 2 and 3 days) | telomere repeat DNA signals [1] | frequency of telomere aberrations incl. fragile telomere doublets (LOX cells [2]) | increase in telomere-associated γH2AX compared to PP treatment (LOX cells [3]) | level of γH2AX or 53BP1 associated telomere dysfunction-induced foci (TIFs) (LOX cells [3])
CCc1c(C)c2cc3nc(cc4nc(cc5c(CC)c(C)c(cc1[nH]2)n5C)C(C)=C4CCC(=O)O)C(CCC(=O)O)=C3C [NMM, N-methyl mesoporphyrin IX] | decrease in average telomere length | reduced telomere repeat DNA signals | increased the frequency of telomere aberrations | ~ fivefold increase | high level
CN(C)c1ccc(Nc2c3ccc(NC(=O)CCN4CCCC4)cc3nc3cc(NC(=O)CCN4CCCC4)ccc23)cc1 [BRACO-19] | – | to a lesser extent | increased the frequency of telomere aberrations | ~ three fold increase | moderate level
